{"source": "paper PMC7515946", "about": "“Targeting of Perforin Inhibitor into the Brain Parenchyma Via a Prodrug Approach Can Decrease Oxidative Stress and Neuroinflammation and Improve Cell Survival” (Molecular Neurobiology, 2020)", "key": {"primary astrocytes": {"test_system": "primary astrocytes", "assay": "Ability to affect cell growth of primary astrocytes (resazurin)", "assay_type": "cell-based", "settings": "72 h"}, "[1]": {"assay": "Intracellular unbound concentrations in astrocytes (RED dialysis, Kp,uu,cell)", "assay_type": "in vitro ADME", "settings": "mouse; for fraction unbound at 4 h, 100 μM: astrocyte homogenate, RED, 37 °C, read-out: fu,cell (unbound fraction)", "protocol": "(§1) The non-specific binding of compounds (100 μM) was determined in astrocyte homogenate by using the Rapid Equilibrium Dialysis (RED) device (Thermo Fisher Scientific, Inc., Waltham, MA, USA). Briefly, the astrocyte cell suspension (10 × 10^6 cells/mL) was homogenized with HBSS by the SoniPerp 150 Plus disintegrator (MSE Ltd., London, UK) (2 s × 3). The studied compound was mixed with 100 μL of cell homogenate and added to the reaction chamber. A 350-μL HBSS buffer was added to the buffer chamber. The dialysis plate was incubated at 37 °C for 4 h with shaking. Fifty microliters of samples were taken from the reaction and buffer chambers and equal size of the buffer or blank homogenate were added, respectively, to yield identical matrices. The proteins were precipitated by adding 100 μL of ice-cold ACN (including the selected internal standard; see above), and the supernatants were collected for LC-MS analysis (see above) after centrifugation at 12,000 × g for 10 min. The unbound drug fraction (fu,cell) was calculated by dividing concentration in the buffer chamber by concentration in the reaction chamber and taking into account the effect of homogenate dilution factor (D = 45 for 10 × 10^6 cells/mL cell suspension according to their weight of the cells) as described earlier.\n(§2) The compound concentration ratios in astrocytes (Kp) was determined at 0.01–1.0 μM concentrations by comparing the cellular uptake amount (nmol) in cell lysates (0.1 M NaOH) per astrocyte cell volume (0.05810^−15 L/cell for 10 × 10^4 cells/well) to the concentrations (nM) detected from the surrounding buffer (HBSS) collected before cell lysing as described previously. The unbound drug concentration ratio (Kp,uu) was then calculated by multiplying the drug concentration ratio (Kp) by unbound drug fraction (fu,cell)."}, "LAT1": {"test_system": "LAT1", "design": "method as in PMID 31610281", "settings": "human breast adenocarcinoma cells (MCF-7); read-out: IC50 of [14C]-L-leucine uptake (LAT1 binding) in MCF-7 cells; cited from earlier work"}, "mouse primary astrocytes [2]": {"test_system": "mouse primary astrocytes", "design": "method as in PMID 31492955", "settings": "in the presence of a specific LAT1 inhibitor; cited from earlier work"}, "[3]": {"design": "method as in PMID 27266990", "settings": "cited from earlier work"}, "[4]": {"design": "method as in PMID 31492955", "settings": "neurons, astrocytes, and microglia homogenates; cited from earlier work"}, "[5]": {"design": "method as in PMID 26705152", "settings": "cited from earlier work"}, "[6]": {"design": "method as in PMID 27266990", "settings": "during 5 h incubation; cited from earlier work"}, "[7]": {"design": "method as in PMID 26705152", "settings": "cited from earlier work", "remark": "listed apart in the source"}, "mouse primary astrocytes [8]": {"test_system": "mouse primary astrocytes", "assay": "Transporter-mediated cellular uptake into primary astrocytes", "assay_type": "in vitro ADME", "settings": "for Vmax of cellular uptake (maximum transport capacity): 1–200 μM, 30 min", "protocol": "(§3) For the cell uptake experiments, the astrocytes were seeded on 24-well plates with a density of 10 × 10^4 cells/well 3 days before the experiments. […]; Agilent Technologies, Santa Clara, CA). […] The concentrations of each compound in cell lysates were calculated from the standard curve that was prepared by spiking known amounts of compounds to ACN including the selected internal standard and normalized with protein concentration. The protein concentrations on each plate were determined as a mean of three samples by Bio-Rad Protein Assay, based on the Bradford dye-binding method, using bovine serum albumin (BSA) as a standard protein and measuring the absorbance (595 nm) by a multiplate reader (EnVision, Perkin Elmer, Inc., Waltham, MA, USA)."}, "[9]": {"assay": "Transporter-mediated cellular uptake into primary astrocytes", "assay_type": "in vitro ADME", "settings": "C57BL/6JOlaHsd, mouse", "protocol": "as §3"}, "[10]": {"design": "method as in PMID 31492955", "settings": "cited from earlier work"}, "mouse primary astrocytes [11]": {"test_system": "mouse primary astrocytes", "assay": "Intracellular unbound concentrations in astrocytes (RED dialysis, Kp,uu,cell)", "assay_type": "in vitro ADME", "settings": "below 500 nM concentrations", "protocol": "as §1, §2"}, "[12]": {"molecular_target": "T1, purified human β-site amyloid precursor protein (APP) cleaving enzyme 1 (BACE1) (Homo sapiens, UniProt P56817)", "T1 construct": "purchased AnaSpec, Inc. (Fremont, CA, USA), SensoLyte 520 BACE1 Assay kit", "T1 sequence (P56817 22-501 limits assumed)": "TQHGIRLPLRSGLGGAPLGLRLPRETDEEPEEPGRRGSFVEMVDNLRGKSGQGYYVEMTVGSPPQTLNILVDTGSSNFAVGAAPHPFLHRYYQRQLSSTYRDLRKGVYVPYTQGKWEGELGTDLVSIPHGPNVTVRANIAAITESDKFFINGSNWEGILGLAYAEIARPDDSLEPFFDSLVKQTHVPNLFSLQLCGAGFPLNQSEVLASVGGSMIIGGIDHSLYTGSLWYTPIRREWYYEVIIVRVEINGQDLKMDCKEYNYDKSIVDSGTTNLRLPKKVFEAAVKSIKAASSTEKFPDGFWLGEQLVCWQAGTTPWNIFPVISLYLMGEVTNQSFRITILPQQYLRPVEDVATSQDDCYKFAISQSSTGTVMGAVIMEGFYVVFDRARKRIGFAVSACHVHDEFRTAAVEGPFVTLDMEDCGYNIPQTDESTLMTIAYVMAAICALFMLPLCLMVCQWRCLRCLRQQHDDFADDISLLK", "assay": "BACE1 FRET inhibition assay", "assay_type": "biochemical", "settings": "1 and 10 μM, respectively, 30 min", "excerpt": "A fluorometric assay was used to screen the inhibitory effect of the studied compounds on purified human β-site amyloid precursor protein (APP) cleaving enzyme 1 (BACE1) using a fluorescence resonance energy transfer (FRET) peptide technique (SensoLyte© 520 BACE1 Assay kit, AnaSpec, Inc., Fremont, CA, USA) according to the manufacturer’s protocol. […] The sequence of the FRET peptide has been derived from the β-secretase cleavage site of β-amyloid precursor protein (APP) with Swedish mutation, which enhances β-secretase to process APP resulting in an early onset of AD. Thus, active β-secretase cleaved the FRET substrate into two separate fragments resulting in the release of HiLyte™ Fluor 488 fluorescence that was measured by the Envision plate reader (EnVision, Perkin Elmer, Waltham, MA, USA) at λex 490 nm and λem 520 nm."}, "[13]": {"settings": "1–200 μM, 30 min, read-out: Km of cellular uptake"}}, "note": "“Also recorded” adds a separate entry of the source. Where two headings read alike, the source gives them in different places.", "data": [{"smiles": "N[C@H](Cc1cccc(C(=O)OCc2ccc(-c3ccc(-c4ccc5c(c4)COC5=O)s3)cc2)c1)C(=O)O", "note": "[PFI-PD]", "values": [{"measurement": "Increase of astrocyte cell growth", "setting": "primary astrocytes; 5–100 μM, vs control cells", "result": "35–87%"}, {"measurement": "Effect on astrocyte cell growth / viability", "setting": "primary astrocytes; 5–400 μM", "result": "did not exert any inhibitory effects; also recorded: did not affect the cell viability"}, {"measurement": "Kp uu at 50 nM", "setting": "[1]; primary astrocytes, astrocytes, 50 nM concentration, read-out: Kp,uu,cell (unbound drug accumulation ratio)", "result": "2.01 ± 0.91"}, {"measurement": "fraction unbound at 4 h, 100 μM", "setting": "[1]", "result": "7e-05 ± 4e-05"}, {"measurement": "IC50", "setting": "LAT1", "result": 1540, "unit": "nM"}, {"measurement": "Inhibition of cellular uptake into primary astrocytes by a specific LAT1 inhibitor", "setting": "mouse primary astrocytes [2]", "result": "over 70%"}, {"measurement": "Brain Cmax", "setting": "[3]; dose 23 μmol/kg", "result": "0.12 nmol/g of tissue"}, {"measurement": "Unbound brain Cmax,u", "setting": "[3]; dose 23 μmol/kg", "result": "0.002 nmol/g of tissue"}, {"measurement": "Half-lives in brain cell homogenates", "setting": "[4]", "result": "4 to 6", "unit": "h"}, {"measurement": "Bioconversion half-life in rat liver S9 subcellular fraction", "setting": "[5]", "result": "approximately 55 min"}, {"measurement": "Prodrug bioconverted in mouse brain S9 subcellular fraction", "setting": "[6]", "result": "approximately 50%"}, {"measurement": "Stability in human plasma", "setting": "[7]", "result": "completely stable"}, {"measurement": "Vmax of cellular uptake (maximum transport capacity)", "setting": "mouse primary astrocytes [8]", "result": "54 ± 7", "unit": "nmol/min/mg protein"}, {"measurement": "Km at 30 min", "setting": "[9]; [13]", "result": 720, "unit": "µM"}, {"measurement": "Bioconversion half-life in primary mouse astrocyte homogenate", "setting": "[10]", "result": "approximately 6 h"}]}, {"smiles": "O=C1OCc2cc(-c3ccc(-c4ccc(CO)cc4)s3)ccc21", "note": "[PFI]", "values": [{"measurement": "Inhibition of astrocyte cell growth", "setting": "primary astrocytes; concentrations over 100 μM, vs untreated control", "result": "38–68%"}, {"measurement": "Detection in astrocyte cell lysates", "setting": "mouse primary astrocytes [11]", "result": "not detected"}, {"measurement": "fraction unbound at 4 h, 100 μM", "setting": "[1]", "result": "0.0053 ± 0.0001"}, {"measurement": "Inhibition of BACE1 activity", "setting": "[12]", "result": "71–96%"}, {"measurement": "Amount of released PFI in the brain after the prodrug treatment", "setting": "[3]; after PFI-PD 23 μmol/kg", "result": "0.01 nmol/g of tissue"}, {"measurement": "Brain levels of PFI after PFI dosing", "setting": "[3]; dose 23 μmol/kg, LC-MS/MS", "result": "below the detection limit"}, {"measurement": "Vmax of cellular uptake (maximum transport capacity)", "setting": "mouse primary astrocytes [8]", "result": "1.4 ± 0.4", "unit": "nmol/min/mg protein"}, {"measurement": "Vmax of cellular uptake, Eadie-Hofstee, first transport mechanism", "setting": "mouse primary astrocytes [8]; mechanism with Km 8.3 μM", "result": "0.036 ± 0.007", "unit": "nmol/min/mg protein"}, {"measurement": "Vmax of cellular uptake, Eadie-Hofstee, second transport mechanism", "setting": "mouse primary astrocytes [8]; mechanism with Km 680 μM", "result": "2.53 ± 0.17", "unit": "nmol/min/mg protein"}, {"measurement": "Km at 30 min", "setting": "[9]; [13]", "result": 98, "unit": "µM"}, {"measurement": "Km at 30 min", "setting": "[9]; read-out: Km of cellular uptake, Eadie-Hofstee, first transport mechanism", "result": 8.3, "unit": "µM"}, {"measurement": "Km at 30 min", "setting": "[9]; read-out: Km of cellular uptake, Eadie-Hofstee, second transport mechanism", "result": 680, "unit": "µM"}]}]}
